Patent publication US20180346430A1, “TRIFLUOROACETYL HYDRAZIDE COMPOUNDS AND METHODS OF PREPARATION AND USES THEREOF” (GUANGHOU MAGPIE PHARMACEUTICALS CO., LTD., priority 2014, published 2018)

Key:
PC12 cells [1] = assay: t-BHP-induced mitochondrial membrane potential disorder in PC12 cells (JC-1, flow cytometry); format: cell-based; conditions: pre-incubated 2 h, t-BHP 100 μM, FIG. 13C
Method: (§1) PC12 cells were seeded on a 96-well plate and inoculated in a 5% CO2 incubator at 37° C. for 24 hours, and then T-006 and TMP (100 M) in different concentration gradients were added to be pre-incubated for 2 hours. Then the medium was aspirated, and 100 μl t-BHP (100 μM) was added to each well except the wells of the control group, and the cells were cultured in an incubator for 24 hours. Hoechst working fluid was added and the number of PC12 cells was observed and counted under fluorescence microscope. […] (B) PC12 cell apoptosis statistics. […] PC12 cells were seeded on a 96-well plate and inoculated in a 5% CO2 incubator at 37° C. for 24 hours, and then T-006 and TMP (100 M) in different concentration gradients were added to be pre-incubated for 2 hours. 2 hours later, 100 μl t-BHP (100 μM) was added to each well except the control group for induction. After completion of the induction, JC-1 working solution was added to each well and mitochondrial membrane potential was monitored and analyzed using flow cytometry. Compared with the control group, ### p<0.001; compared with t-BHP, *p<0.05, **p<0.01 and ***p<0.001.

[2] = system: Scopolamine-induced memory impairment in mice; assay: Scopolamine-induced memory impairment in mice, water maze test; format: in vivo, Kunming mice; conditions: for Improvement of scopolamine-induced memory impairment: water maze, **p<0.01 vs scopolamine model group, FIG. 10A, 10B
Method: In this example, Kunming mice were selected and divided into normal control group (Ctrl), Scopolamine group (Sco), Donepezil treatment group (Sco+3 mg/kg donepezil), 1 and 10 mg T-006 treatment group (Sco+1 mg/kg T-006 and Sco+10 mg/kg T-006). Intragastric administration was performed for two weeks, and after the final administration water maze test was conducted for 4 days. Thirty minutes before the test, abdominal injection of scopolamine (1 mg/kg) and model were performed. On day 5, space search test was conducted, and data were expressed as Mean±SD (n=9 per group).

[3] = system: Primary cerebellar granule cells; assay: Protective effect on glutamate-induced cerebellar granule injury (MTT); format: cell-based, SD fetal rat; conditions: pre-incubated 2 h, glutamate 75 μM 24 h, concentration-dependent, **P<0.01 vs glutamate group, FIG. 7
Method: (§2) Primary cerebellar granule cells, extracted from 7-8 day, 15-20 g SD fetal rat, were seeded on a 96-well plate and inoculated in a 5% CO2 incubator at 37° C. for 8 days. On day 8, 90 μL of the compound (T-006) was added with different concentration gradients, then the cells were set to an incubator to cultivate for 2 hours. Then 10 μL of glutamate (final concentration of 75 μM) was added to each well except those of the control group. The cells were set to incubator to cultivate for 24 hours, and then MTT was added to each well. Four hours later, the absorbance value was measured at 570 nm using a microplate reader. […] Compared with the glutamate group, **P<0.01.

PC12 cells [4] = assay: Protective effect on IAA-induced PC12 cell injury (MTT); format: cell-based; conditions: FIG. 3
Method: PC12 cells were seeded on a 96-well plate and inoculated in a 5% CO2 incubator at 37° C. for 24 hours. Then 100 μl of IAA (50 μM) was added for induction for 2 hours. Two hours later, the medium was aspirated, and each of the compounds (T-006, TMP, Edaravone) was added and the cells were cultured for 24 hours. After 24 hours of incubation, MTT was added to each well. Four hours later, the absorbance was measured at 570 nm using a microplate reader. […] Compared with the IAA group, ****P<0.0001.

[5] = system: Primary cerebellar granule cells; assay: Protective effect on MPP+-induced cerebellar granule injury (MTT); format: cell-based, SD fetal rat; conditions: pre-incubated 2 h, MPP+ 35 μM 24 h, concentration-dependent, **P<0.01 vs MPP+ group, FIG. 8
Method: as §2, with “days,” for “day,”, “MPP^+” for “glutamate”, “35” for “75”

PC12 cells [6] = assay: Protective effect on t-BHP-induced PC12 cell injury (MTT); format: cell-based; conditions: FIG. 4
Method: PC12 cells were seeded on a 96-well plate and inoculated in a 5% CO2 incubator at 37° C., for 24 hours. Then each compound (T-006, TMP, Edaravone) was added in different concentration gradients to pre-incubated for 2 hours. Two hours later, the medium was aspirated, and 100 μl t-BHP (100 μM) was added to each well except those of the control group, then the cells were cultured in an incubator for 24 hours. Four hours later, MTT was added into each of the wells, and the absorbance was measured at 570 nm using a microplate reader. […] Compared with t-BHP group, ****P<0.0001.

PC12 cells [7] = assay: t-BHP-induced apoptosis in PC12 cells (Hoechst staining); format: cell-based; conditions: pre-incubated 2 h, t-BHP 100 μM 24 h, FIG. 13A, 13B
Method: as §1

PC12 cells [8] = assay: t-BHP-induced ROS and RNS in PC12 cells (DCF-DA, HFP, DAF-FM, DHR123 probes); format: cell-based; conditions: pre-incubated 2 h, t-BHP 100 μM 6 h; total ROS, hydroxyl radicals, nitric oxide radicals, peroxynitrite; FIG. 14A-14D
Method: PC12 cells were seeded on 6-well plate and inoculated in a 5% CO2 incubator at 37° C. for 24 hours, and then T-006 and TMP (100 M) in different concentration gradients were added to be pre-incubated for 2 hours. Then the medium was aspirated, and 100 μl t-BHP (100 μM) was added to each well except the wells of the control group, and the cells were cultured in an incubator for 6 hours. Consequently, DCF-DA probes, HFP probes, DAF-FM probes and DHR123 probes were added respectively to determine the total ROS, hydroxyl radicals, nitric oxide radicals and peroxynitrite. (A) DCF-DA probe for determining intracellular total ROS. (B) HFP probe for determining intracellular hydroxyl radicals. (C) DAF-FM probe for determining nitric oxide free radicals. (D) DHR123 probe for determining intracellular peroxynitrite. Compared with the control group, ### p<0.001; compared with t-BHP, *p<0.05, **p<0.01 and ***p<0.001.

[9] = system: MEF2 transcription activity in PC12 cells; assay: MEF2 luciferase reporter assay in stably transfected PC12 cells; format: cell-based; conditions: 24 h incubation, **P<0.01, FIG. 9
Method: The PC12 was transfected by cloning the MEF2 reporter gene pGreenFire1TM-MEF2-EF1 lentivector. Stable transfected PC12 cells, as cultured in a conventional manner, were seeded on a 96-well plate with T-006 added in different concentrations, were incubated for 24 h. The activity was measured by the Luciferase reporter assay kit (Promega, USA). […] Compared with the IAA group, **P<0.01.

Cortical neurons [10] = assay: Protective effect on IAA-induced cortical neuronal injury (MTT); format: cell-based, SD fetal rat; conditions: FIG. 5
Method: Cortical neurons of E16-18 day SD fetal rat were seeded on a 96-well plate and inoculated in a 5% CO2 incubator at 37° C. for 8 days. On day 8, each of the compounds (T-006, TMP, Edaravone) was added with different concentration gradients, and 50 μl IAA (40 μM) was added to each well except those of the control group. Then the neurons were set to incubator to cultivate for 24 hours, and then MTT was added to each well. Four hours later, the absorbance was measured at 570 nm using a microplate reader. […] Compared with the IAA group, ****P<0.0001.

Cortical neurons [11] = assay: Protective effect on t-BHP-induced cortical neuronal injury (MTT); format: cell-based, SD fetal rat; conditions: FIG. 6
Method: Cortical neurons of E16-18 days SD fetal rat were seeded on a 96-well plate and inoculated in a 5% CO2 incubator at 37° C. for 8 days. […] The neurons were set to incubator to cultivate for 24 hours, and then MTT was added to each well. Four hours later, the absorbance value was measured at 570 nm using a microplate reader. […] Compared with the t-BHP group, ****P<0.0001.

PC12 cells [12] = assay: Differentiation of PC12 cells into neurons with synapse growth; format: cell-based; conditions: 72 h, **P<0.01 vs control group, FIG. 11
Method: PC12 cells were seeded on 6-well plate and inoculated in a 5% CO2 incubator at 37° C. for 24 hours. Control group was unchanged; NGF control group: serum-free F-12K+50 ng/mL NGF; drug treatment group: serum-free F-12K with different concentrations of T-006. After 72 hours of incubation, picture was taken under an inverted microscope with 5 shoots at random for each hole. If the cell synapse length is more than 2 times the cell, it can be regarded as cell differentiation and synapse formation. […] Compared with the control group, **P<0.01.

[13] = comparison with TMP and Edaravone

Compound: Cc1ccc(N(/N=C/c2nc(C)c(C)nc2C)C(=O)C(F)(F)F)c(C)c1 [T-006]
- t-BHP-induced mitochondrial membrane potential disorder in PC12 cells (PC12 cells [1]): improved t-BHP-induced mitochondrial membrane potential disorder
- Improvement of scopolamine-induced memory impairment ([2]; 1 mg/kg intragastric for two weeks): significantly improved the memory impairment induced by scopolamine
- Improvement of scopolamine-induced memory impairment compared with 3 mg/kg donepezil group ([2]; 10 mg/kg T-006 vs 3 mg/kg donepezil, $p<0.05): significantly better than 3 mg/kg donepezil group
- Improvement of scopolamine-induced memory impairment ([2]; 10 mg/kg intragastric for two weeks): significantly improved the memory impairment induced by scopolamine
- Protective effect on glutamate-induced primary cerebellar granule injury [3]: significant protective effect
- Protective effect on IAA-induced PC12 cell injury (PC12 cells [4]; IAA 50 μM 2 h, then compound 24 h, MTT, ****P<0.0001 vs IAA group): significant protective effect
- Protective effect on IAA-induced PC12 cell injury compared with TMP and Edaravone (PC12 cells [4]; [13]): much stronger than that of the parent compound TMP and Edaravone
- Protective effect on MPP+-induced primary cerebellar granule injury [5]: significant protective effect
- Protective effect on t-BHP-induced PC12 cell injury compared with TMP or Edaravone (PC12 cells [6]; comparison with TMP or Edaravone): much stronger than that of the parent compound TMP or Edaravone
- Protective effect on t-BHP-induced PC12 cell injury (PC12 cells [6]; pre-incubated 2 h, t-BHP 100 μM 24 h, MTT, ****P<0.0001 vs t-BHP group): significant protective effect
- t-BHP-induced PC12 cell apoptosis (PC12 cells [7]): reduced t-BHP-induced PC12 cell apoptosis
- Elevation of ROS and RNS in t-BHP-induced PC12 cells (PC12 cells [8]): Reduced the Elevation of ROS and RNS
- MEF2 transcriptional activity in PC12 cells [9]: significantly activates ME12 transcriptional activity
- Protective effect on IAA-induced cortical neuronal injury (Cortical neurons [10]; IAA 40 μM, 24 h, MTT, ****P<0.0001 vs IAA group): significant protective effect
- Protective effect on IAA-induced cortical neuronal injury compared with TMP and Edaravone (Cortical neurons [10]; [13]): much stronger than that of the parent compound TMP and Edaravone
- Protective effect on t-BHP-induced cortical neuronal injury (Cortical neurons [11]; 24 h, MTT, ****P<0.0001 vs t-BHP group): significant protective effect
- Protective effect on t-BHP-induced cortical neuronal injury compared with TMP and Edaravone (Cortical neurons [11]; [13]): much stronger than that of the parent compound TMP and Edaravone
- Differentiation of PC12 cells into neurons, synapse formation and growth (PC12 cells [12]; serum-free F-12K, different concentrations, concentration-dependent): significantly promote differentiation of PC12 cells into neurons, synapse formation and growth

Compound: COc1cc2c(cc1OC)C(=O)C(CC1CCN(Cc3ccccc3)CC1)C2 (centres unmarked) [donepezil, reference compound]
- Improvement of scopolamine-induced memory impairment ([2]; 3 mg/kg intragastric for two weeks): significantly improved the memory impairment induced by scopolamine

Compound: NGF: positive control NGF, 50 ng/mL, in the PC12 differentiation test
- Differentiation of PC12 cells into neurons, synapse formation and growth (PC12 cells [12]; serum-free F-12K + 50 ng/mL NGF, positive control): significantly promote differentiation of PC12 cells into neurons, synapse formation and growth
